# Test results published in patent US9717727B2, “Methods of treating and preventing leukemia and other cancers of the blood and bone” (The Trustees of Columbia University in the City of New York, priority 2011, dated 2017).
# Read-outs that look alike come from different tables or passages of the source.
# Experiments:
# [1] = tested on: EL4 cells; assay: EL4 leukemia mouse model, all mice sacrificed at day 15 (Example 10); format: in vivo
# Experimental: Mice were sacrificed at pre-determined time points as specified before or upon signs of illness. Each animal was weighed before blood was sampled, and visually examined for tumor development. Spleens were isolated and weighed. Spleens and tissue samples from liver were fixed in 10% neutral formalin solution for 48 hours. Osseous samples (thoracic spine, sternum, pelvis, and stifle joint) were decalcified in Decalcifier System I (Leica Microsystems, Inc.) for 48 h after fixation. All tissues were processed by routine methods and embedded in paraffin Sections of 4 or 5 μm were stained with hematoxylin and eosin (H&E) according to standard procedures. Luciferase intensity was measured by plating 4.5 million bone marrow cells into 6-well plates. Luciferin was added at a final concentration of 150 μg/mL and luciferase activity was measured at a luminometer. Mice were treated orally with LP-533401 (25 or 200 mg per kg of body weight per day) or vehicle. Treatments started 15 days before malignant cell injections in all sets of experiments, and continued for the indicated periods of time. LP-533401 was dissolved in polyethylene glycol (PEG) and 5% dextrose or 2.5% glucose (Sigma), and given daily by oral gavage. Mice treated with vehicle were administered, in the same way as LP533401, a solution of PEG and 5% dextrose or 2.5% glucose, daily, by oral gavage. The same mice and techniques used in Example 9 were used in this Example, except all of the mice were sacrificed at day 15 following EL4 cell injection
# [2] = tested on: WEHI/3B myelomonocytic leukemia cell line; assay: WEHI/3B murine model of AML, tumor burden at tissue level (Example 12); format: in vivo, mice
# Experimental: WEHI/3B, a macrophage-like myelomonocytic leukemia cell line established from inbred BALB/c mice, was used. BALB/cJ mice were inoculated with 1×10^6 Wehi-3 cells.
# Mice were sacrificed at pre-determined time points as specified before or upon signs of illness. Each animal was weighed before blood was sampled, and visually examined for tumor development. Spleens were isolated and weighed. Spleens and tissue samples from liver were fixed in 10% neutral formalin solution for 48 hours. Osseous samples (thoracic spine, sternum, pelvis, and stifle joint) were decalcified in Decalcifier System I (Leica Microsystems, Inc.) for 48 h after fixation. All tissues were processed by routine methods and embedded in paraffin Sections of 4 or 5 μm were stained with hematoxylin and eosin (H&E) according to standard procedures.
# Histomorphometric analyses were performed on vertebral column specimens collected from 2 months old mice using undecalcified sections using the osteomeasure analysis system (Osteometrics). Lumbar vertebrae were dissected, fixed for 24 hours in 10% formalin, dehydrated in graded ethanol series, and embedded in methyl methacrylate resin according to standard protocols (Chappard et al. (1987); Parfitt et al. (1987)).
# Bone formation rate (BFR) was analyzed by the calcein double-labeling method. Calcein (Sigma) was dissolved in calcein buffer (0.15 M NaCl, 2% NaHCO3) and administered by an intraperitoneal injection of 25 μg/g body weight, 6 days and 2 days before sacrificing the animals. In experiments evaluating survival rates of animals, bone formation rate was not calculated due to the unknown time of death. Unstained 4-μm sections were used for BFR measurements.
# For the analysis of parameters of osteoblast and osteoclast, 4-μm sections were stained with toluidine blue and tartrate-resistant acid phosphatase (TRAP), respectively. Type I collagen content and bone volume over trabecular volume (BV/TV) were analyzed using 7-μm sections by Von Gieson and Von Kossa staining […] respectively in undecalcified sections. Images were taken using a 10× objective on a Leica microscope outfitted with camera. Six to ten animals were analyzed for each group.
# Total RNA was isolated from tissues or cultured cells using Trizol, according to the manufacturer's protocol (Invitrogen). Total RNA (2 μg) was treated with DNAse I (Invitrogen), and reverse transcribed at 42° C. with SuperScript II (Invitrogen). The expression of all the genes was measured by real-time quantitative PCR with the SYBR Green Master Mix (Bio-Rad) using β actin or 18s as endogenous control.
# BALB/cJ mice purchased from Jackson Laboratory and injected with WEHI/3B, as described in Example 2, were used.
# Mice were treated as described in Example 9 and classified as: • Mice with no leukemia treated with a vehicle, i.e., non-leukemic-vehicle-treated (“WT”); • Mice with no leukemia treated with LP-533401, i.e., non-leukemic-LP-533401-treated (“NL-LP”); • Mice with leukemia treated with a vehicle, i.e., leukemic-vehicle-treated (“Leuk-veh”); and • Mice with leukemia treated with LP-533401, i.e., leukemic-LP 533410-treated (“Leuk-LP”).
# All mice were sacrificed after 2 weeks for the following assessments: • Serum serotonin levels as measured in Example 9; • Body weight as described in Example 2 • Spleen weight as described in Example 2; • Histological analysis of the femur, spleen and liver as described in Example 2; • Trabecular Bone Volume (Bv/TV) as described in Example 3; • and • Gene Expression analysis by PCR as described in Example 3. Results
# [3] = tested on: serum serotonin; assay: Serum serotonin levels, WEHI/3B study (Example 12); format: in vivo; details: non-leukemic mice treated with LP-533401 (NL-LP); BALB/cJ
# Experimental: For measurements of serum serotonin levels, mice were briefly exposed to Isoflurane (Baxter) for 30 seconds and blood was collected by cardiac puncture. Similar volumes of blood were collected from different animals for consistency in the clotting times. Serum collection from all mice was done between 9:00 am and 12:00 pm. Blood was allowed to clot on ice for 5 minutes before centrifugation at maximum speed at 4° C. for 10 minutes. The serum supernatant was removed, snap frozen and stored at −80° C. for further analysis. Serum serotonin levels were quantified by ELISA (Serotonin kit, Fitzgerald) according to manufacturer's instructions. […]
# All mice were sacrificed after 2 weeks for the following assessments: • Serum serotonin levels as measured in Example 9; • Body weight as described in Example 2 • Spleen weight as described in Example 2; • Histological analysis of the femur, spleen and liver as described in Example 2; • Trabecular Bone Volume (Bv/TV) as described in Example 3; • and • Gene Expression analysis by PCR as described in Example 3. […]
# [4] = tested on: serotonin; details: six consecutive doses, cited from earlier work
# [5] = in vivo; cited from earlier work
# [6] = among 14 mice treated (WEHI/3B)
structure (smiles),measurement,setting,value
Nc1nc(OC(c2ccc(-c3cccc(F)c3)cc2)C(F)(F)F)cc(-c2ccc(C[C@H](N)C(=O)O)cc2)n1 (some centres unmarked) [LP-533401],leukemic infiltration in the marrow (histology),[1]; day 15,reduced leukemic infiltration
same,leukemic mice with 20 to 40% blasts in the bone marrow,[1]; day 15,40%
same,leukemic mice with increased megakaryocyte number,[1]; day 15,20%
same,leukemic mice with less than 20% of blasts in the bone marrow,[1]; day 15,40%
same,leukemic mice with more than 80% blasts in the bone marrow,[1]; day 15,20%
same,"leukemia-induced changes in WBCs, monocytes, neutrophils and lymphocytes","[1]; day 15, leukemic mice",all prevented
same,liver leukemic involvement,"[1]; day 15, leukemic mice",normal or only small size focal infiltrates
same,myeloid hyperplasia,"[1]; day 15, leukemic mice",Mild myeloid hyperplasia
same,prevalence of immature lymphoblastic cells in the blood compared to healthy controls,"[1]; day 15, leukemic mice",did not show an increase
same,EL4 tumor burden,"[1]; day 15, whole body and bone marrow",decreased in whole body and in the bone marrow
same,"leukemia-caused decrease in bone volume, osteoblast numbers and bone formation rate",[1]; day 15 after EL4 injection,ameliorated
same,osteoclast numbers,[1]; day 15 after EL4 injection,Neither injection with EL4 cells nor treatment with LP-533401 affected osteoclast numbers
same,anemia observed in leukemic mice,[2]; WEHI/3B,inhibited
same,leukemia infiltration in the liver and spleen,[2]; WEHI/3B,limited leukemia infiltration in the liver and spleen
same,"leukemia-caused decrease in trabecular bone volume, osteoblast numbers and bone formation rate",[2]; WEHI/3B,prevented the decrease
same,leukemic mice in which megakaryocyte numbers returned to normal,[2]; WEHI/3B,70%
same,leukemic mice with normal myeloid:erythroid ratio,[2]; WEHI/3B,50%
same,number of leukemia blasts (histology),[2]; WEHI/3B,reduced number of leukemia blasts
same,osteoclast numbers,[2]; WEHI/3B,not affected
same,mice with less than 5% marrow blasts,[2]; [6],71%
same,number of mice with less than 5% marrow blasts,[2]; [6],10
same,"expression of osteoblast differentiating genes (osteocalcin, osterix, Runx2, alkaline phosphatase, collagen 1a1)","[2]; femur of leukemic mice (WEHI/3B), PCR",normalize the expression
same,cyclin D1 and D2 expression in bone (osteoblast proliferation),[2]; leukemic mice (WEHI/3B),increase in cyclin D1 and D2 expression
same,enlargement of the spleen (spleen weight),[2]; leukemic mice (WEHI/3B),alleviated
same,splenic red pulp,[2]; leukemic mice (WEHI/3B),normal
same,animals with a blast percentage of 20% or more in the bone marrow,"[2]; leukemic mice (WEHI/3B), 2 weeks",28%
same,body weight,[2]; leukemic vs non-leukemic animals (WEHI/3B),weight loss was not observed
same,decrease in serum serotonin levels compared to wild-type mice,[3],50%
same,serotonin levels in the small intestine lowered,[4]; 30 mg/kg twice per day,55%
same,serotonin levels in the small intestine lowered,[4]; 90 mg/kg twice per day,70%
same,brain-derived serotonin,[4]; 30 or 90 mg/kg twice per day,unchanged
same,crossing of the blood-brain barrier,[5],did not cross the blood-brain barrier
